Test results as given in PubChem BioAssay AID250 (DTP/NCI, 2004).
Where “and” joins values, the source holds several entries; their conditions need not be identical. Equal entries are not always repeated. Toxic doses and inconclusive results are not listed. Rule for the calls: active = survival T/C of 150% or more; inactive = T/C below 125% in these data.

Test system: BDF1 mice, L1210 leukemia sc, survival T/C
Assay: NCI In Vivo Anticancer Drug Screen. Data for tumor model L1210 Leukemia (subcutaneous) in B6D2F1 (BDF1) mice
Details: higher = longer survival
How it was run: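 Transplantable tumor-bearing mice; survival or tumor size recorded; result = T/C, treated vs vehicle control.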

[1] = endpoint: median survival time, dose: 14.0 mg/kg/injection, schedule: Q01DX Z (sc), vehicle: methylcellulose (MC)
[2] = endpoint: median survival time, dose: 108.0 mg/kg/injection, schedule: Q01DX Z (sc), vehicle: methylcellulose (MC)
[3] = endpoint: median survival time, dose: 23.0 mg/kg/injection, schedule: Q01DX Z (sc), vehicle: water
[4] = endpoint: median survival time, dose: 180.0 mg/kg/injection, schedule: Q01DX Z (sc), vehicle: methylcellulose (MC)
[5] = endpoint: median survival time, dose: 300.0 mg/kg/injection, schedule: Q01DX Z (sc), vehicle: methylcellulose (MC)

Measured: T/C

S=c1nc[nH]c2c1ncn2C1C=CCCC1 (stereo not drawn)
inactive: [1] 100 % of control | endpoint: median survival time, dose: 23.4 mg/kg/injection, schedule: Q01DX Z (sc), vehicle: methylcellulose (MC) 100 % of control | [2] 100 % of control

NC(=O)N(CCCl)N=O
active: endpoint: median survival time, dose: 0.65 mg/kg/injection, schedule: Q01DX Z (sc), vehicle: saline 168 % of control | endpoint: median survival time, dose: 1.08 mg/kg/injection, schedule: Q01DX Z (sc), vehicle: methylcellulose (MC) 247 % of control | endpoint: median survival time, dose: 1.08 mg/kg/injection, schedule: Q01DX Z (sc), vehicle: saline 273 % of control | endpoint: median survival time, dose: 1.8 mg/kg/injection, schedule: Q01DX Z (sc), vehicle: methylcellulose (MC) 300 % of control | endpoint: median survival time, dose: 1.8 mg/kg/injection, schedule: Q01DX Z (sc), vehicle: saline 420 % of control and 526 % of control | endpoint: median survival time, dose: 3.0 mg/kg/injection, schedule: Q01DX Z (sc), vehicle: methylcellulose (MC) 309 % of control | endpoint: median survival time, dose: 3.0 mg/kg/injection, schedule: Q01DX Z (sc), vehicle: saline 365 % of control and 463 % of control | endpoint: median survival time, dose: 5.0 mg/kg/injection, schedule: Q01DX001 (sc), vehicle: saline 157 % of control | endpoint: median survival time, dose: 5.0 mg/kg/injection, schedule: Q01DX Z (sc), vehicle: saline 270 % of control and 310 % of control | endpoint: median survival time, dose: 5.0 mg/kg/injection, schedule: Q07DX Z (sc), vehicle: saline 200 % of control | endpoint: median survival time, dose: 8.4 mg/kg/injection, schedule: Q01DX001 (sc), vehicle: saline 178 % of control | endpoint: median survival time, dose: 8.4 mg/kg/injection, schedule: Q01DX Z (sc), vehicle: saline 170 % of control | endpoint: median survival time, dose: 8.4 mg/kg/injection, schedule: Q07DX Z (sc), vehicle: saline 289 % of control | endpoint: median survival time, dose: 14.0 mg/kg/injection, schedule: Q01DX001 (sc), vehicle: saline 178 % of control | endpoint: median survival time, dose: 14.0 mg/kg/injection, schedule: Q07DX Z (sc), vehicle: saline 257 % of control | endpoint: median survival time, dose: 23.0 mg/kg/injection, schedule: Q07DX Z (sc), vehicle: saline 152 % of control
inactive: endpoint: median survival time, dose: 0.39 mg/kg/injection, schedule: Q01DX Z (sc), vehicle: methylcellulose (MC) 123 % of control | endpoint: median survival time, dose: 0.65 mg/kg/injection, schedule: Q01DX Z (sc), vehicle: methylcellulose (MC) 123 % of control | endpoint: median survival time, dose: 14.0 mg/kg/injection, schedule: Q01DX Z (sc), vehicle: saline 120 % of control | endpoint: median survival time, dose: 23.0 mg/kg/injection, schedule: Q01DX Z (sc), vehicle: saline 110 % of control

CC(=O)c1ccc(NC(=O)N(CCCl)N=O)cc1
active: endpoint: median survival time, dose: 39.0 mg/kg/injection, schedule: Q01DX Z (sc), vehicle: carboxymethylcellulose (CMC) 183 % of control | endpoint: median survival time, dose: 65.0 mg/kg/injection, schedule: Q01DX Z (sc), vehicle: carboxymethylcellulose (CMC) 211 % of control

O=c1[nH]cc(S)c(=O)[nH]1
inactive: endpoint: median survival time, dose: 23.0 mg/kg/injection, schedule: Q01DX Z (sc), vehicle: other 100 % of control | endpoint: median survival time, dose: 39.0 mg/kg/injection, schedule: Q01DX Z (sc), vehicle: other 100 % of control | endpoint: median survival time, dose: 65.0 mg/kg/injection, schedule: Q01DX Z (sc), vehicle: other 100 % of control | endpoint: median survival time, dose: 108.0 mg/kg/injection, schedule: Q01DX Z (sc), vehicle: other 110 % of control | endpoint: median survival time, dose: 180.0 mg/kg/injection, schedule: Q01DX Z (sc), vehicle: other 110 % of control | endpoint: median survival time, dose: 300.0 mg/kg/injection, schedule: Q01DX Z (sc), vehicle: other 100 % of control

O=C(Nc1ccc(S(=O)(=O)O)cc1)c1ccc([N+](=O)[O-])cc1
active: endpoint: median survival time, dose: 8.4 mg/kg/injection, schedule: Q01DX Z (sc), vehicle: water 155 % of control | endpoint: median survival time, dose: 14.0 mg/kg/injection, schedule: Q01DX Z (sc), vehicle: water 194 % of control | [3] 150 % of control

Nc1nc(SCc2ccccc2)c2[nH]cnc2n1
inactive: [4] 122 % of control | [5] 122 % of control | endpoint: median survival time, dose: 500.0 mg/kg/injection, schedule: Q01DX Z (sc), vehicle: methylcellulose (MC) 111 % of control

COc1ccc2c(Nc3ccc(NS(C)(=O)=O)cc3)c3ccccc3nc2c1
inactive: endpoint: mean survival time, dose: 6.25 mg/kg/injection, schedule: Q01DX009 (sc), vehicle: saline 109 % of control

CS(=O)(=O)OCCCCCCCCCOS(C)(=O)=O
active: endpoint: median survival time, dose: 216.0 mg/kg/injection, schedule: Q01DX Z (sc), vehicle: methylcellulose (MC) 160 % of control
inactive: endpoint: median survival time, dose: 47.0 mg/kg/injection, schedule: Q01DX Z (sc), vehicle: methylcellulose (MC) 105 % of control | endpoint: median survival time, dose: 78.0 mg/kg/injection, schedule: Q01DX Z (sc), vehicle: methylcellulose (MC) 115 % of control

Nc1nc(N)c2nc(CN(CCO)c3ccc(C(=O)NC(CCC(=O)O)C(=O)O)cc3)cnc2n1 (stereo not drawn)
active: endpoint: mean survival time, dose: 2.0 mg/kg/injection, schedule: Q01DX009 (ip), vehicle: sodium bicarbonate 160 % of control | endpoint: mean survival time, dose: 4.0 mg/kg/injection, schedule: Q01DX009 (ip), vehicle: sodium bicarbonate 160 % of control | endpoint: mean survival time, dose: 8.0 mg/kg/injection, schedule: Q01DX009 (ip), vehicle: sodium bicarbonate 191 % of control | endpoint: mean survival time, dose: 16.0 mg/kg/injection, schedule: Q01DX009 (ip), vehicle: sodium bicarbonate 154 % of control
inactive: endpoint: mean survival time, dose: 8.0 mg/kg/injection, schedule: Q04DX003 (ip), vehicle: sodium bicarbonate 123 % of control

CCCCCCC(=O)O[C@H]1CC[C@H]2[C@@H]3CCC4=CC(=O)CC[C@]4(C)[C@H]3CC[C@]12C
inactive: endpoint: median survival time, dose: 5.0 mg/kg/injection, schedule: Q01DX009 (ip), vehicle: other 101 % of control | endpoint: median survival time, dose: 5.0 mg/kg/injection, schedule: Q01DX009 (sc), vehicle: other 102 % of control and 105 % of control | endpoint: median survival time, dose: 10.0 mg/kg/injection, schedule: Q01DX009 (ip), vehicle: other 102 % of control | endpoint: median survival time, dose: 10.0 mg/kg/injection, schedule: Q01DX009 (sc), vehicle: other 100 % of control and 104 % of control | endpoint: median survival time, dose: 20.0 mg/kg/injection, schedule: Q01DX009 (ip), vehicle: other 98 % of control | endpoint: median survival time, dose: 20.0 mg/kg/injection, schedule: Q01DX009 (sc), vehicle: other 104 % of control and 105 % of control | endpoint: median survival time, dose: 40.0 mg/kg/injection, schedule: Q01DX009 (ip), vehicle: other 104 % of control | endpoint: median survival time, dose: 40.0 mg/kg/injection, schedule: Q01DX009 (sc), vehicle: other 101 % of control and 103 % of control | endpoint: median survival time, dose: 80.0 mg/kg/injection, schedule: Q01DX009 (ip), vehicle: other 97 % of control and 98 % of control | endpoint: median survival time, dose: 160.0 mg/kg/injection, schedule: Q01DX009 (ip), vehicle: other 94 % of control and 98 % of control | endpoint: median survival time, dose: 320.0 mg/kg/injection, schedule: Q01DX009 (sc), vehicle: other 88 % of control and 104 % of control | endpoint: median survival time, dose: 640.0 mg/kg/injection, schedule: Q01DX009 (sc), vehicle: other 95 % of control and 100 % of control

CCN(CC)CCCC(C)Nc1c2ccc(Cl)cc2nc2ccc(OC)cc12 (stereo not drawn)
inactive: [3] 90 % of control | endpoint: median survival time, dose: 39.0 mg/kg/injection, schedule: Q01DX Z (sc), vehicle: water 100 % of control | endpoint: median survival time, dose: 65.0 mg/kg/injection, schedule: Q01DX Z (sc), vehicle: water 100 % of control | endpoint: median survival time, dose: 108.0 mg/kg/injection, schedule: Q01DX Z (sc), vehicle: water 95 % of control | endpoint: median survival time, dose: 180.0 mg/kg/injection, schedule: Q01DX Z (sc), vehicle: water 100 % of control | endpoint: median survival time, dose: 300.0 mg/kg/injection, schedule: Q01DX Z (sc), vehicle: water 100 % of control

CC(C)CSc1nc(N)nc2nc[nH]c12
inactive: [1] 100 % of control | endpoint: median survival time, dose: 23.0 mg/kg/injection, schedule: Q01DX Z (sc), vehicle: methylcellulose (MC) 105 % of control | endpoint: median survival time, dose: 39.0 mg/kg/injection, schedule: Q01DX Z (sc), vehicle: methylcellulose (MC) 111 % of control | endpoint: median survival time, dose: 65.0 mg/kg/injection, schedule: Q01DX Z (sc), vehicle: methylcellulose (MC) 111 % of control | [2] 111 % of control | [4] 116 % of control | [5] 111 % of control

CSc1ncnc2nc[nH]c12
inactive: endpoint: median survival time, dose: 38.9 mg/kg/injection, schedule: Q01DX Z (sc), vehicle: methylcellulose (MC) 95 % of control | endpoint: median survival time, dose: 64.8 mg/kg/injection, schedule: Q01DX Z (sc), vehicle: methylcellulose (MC) 105 % of control | [2] 110 % of control | [4] 100 % of control

CC/C(=C(/CC)c1ccc(O)cc1)c1ccc(O)cc1
inactive: [2] 100 % of control | [5] 100 % of control

CN(O)C(N)=O
active: endpoint: median survival time, dose: 360.0 mg/kg/injection, schedule: Q01DX Z (sc), vehicle: saline 150 % of control
